Results taken from ChEMBL document CHEMBL5233259, “Medicinal chemistry strategies for the development of protein tyrosine phosphatase SHP2 inhibitors and PROTAC degraders” (Eur J Med Chem, 2020).

Columns and labels:
[1] = biological target: T1, Tyrosine-protein phosphatase non-receptor type 11 (Homo sapiens, UniProt Q06124); assay: Inhibition of SHP2 ( 1 to 525 residues) (unknown origin)
T1 sequence (Q06124 whole entry): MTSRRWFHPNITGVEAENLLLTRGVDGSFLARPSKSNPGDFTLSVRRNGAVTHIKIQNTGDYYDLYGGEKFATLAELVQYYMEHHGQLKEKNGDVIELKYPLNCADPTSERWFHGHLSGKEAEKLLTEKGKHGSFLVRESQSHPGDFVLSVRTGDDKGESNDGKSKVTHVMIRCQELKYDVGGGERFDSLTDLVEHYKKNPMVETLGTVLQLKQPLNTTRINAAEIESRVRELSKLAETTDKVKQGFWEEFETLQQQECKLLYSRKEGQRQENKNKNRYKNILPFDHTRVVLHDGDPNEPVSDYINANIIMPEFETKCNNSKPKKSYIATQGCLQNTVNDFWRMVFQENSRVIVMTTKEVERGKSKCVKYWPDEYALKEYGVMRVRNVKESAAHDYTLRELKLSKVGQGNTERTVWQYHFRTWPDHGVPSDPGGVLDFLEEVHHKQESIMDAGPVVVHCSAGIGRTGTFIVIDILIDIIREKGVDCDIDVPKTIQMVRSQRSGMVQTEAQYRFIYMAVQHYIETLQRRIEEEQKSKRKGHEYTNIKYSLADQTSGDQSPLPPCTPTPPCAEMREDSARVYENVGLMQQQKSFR

[2] = biological target: T2, Tyrosine-protein phosphatase non-receptor type 6 (Homo sapiens, UniProt P29350); assay: Inhibition of SHP1 (unknown origin)
T2 sequence (P29350 whole entry): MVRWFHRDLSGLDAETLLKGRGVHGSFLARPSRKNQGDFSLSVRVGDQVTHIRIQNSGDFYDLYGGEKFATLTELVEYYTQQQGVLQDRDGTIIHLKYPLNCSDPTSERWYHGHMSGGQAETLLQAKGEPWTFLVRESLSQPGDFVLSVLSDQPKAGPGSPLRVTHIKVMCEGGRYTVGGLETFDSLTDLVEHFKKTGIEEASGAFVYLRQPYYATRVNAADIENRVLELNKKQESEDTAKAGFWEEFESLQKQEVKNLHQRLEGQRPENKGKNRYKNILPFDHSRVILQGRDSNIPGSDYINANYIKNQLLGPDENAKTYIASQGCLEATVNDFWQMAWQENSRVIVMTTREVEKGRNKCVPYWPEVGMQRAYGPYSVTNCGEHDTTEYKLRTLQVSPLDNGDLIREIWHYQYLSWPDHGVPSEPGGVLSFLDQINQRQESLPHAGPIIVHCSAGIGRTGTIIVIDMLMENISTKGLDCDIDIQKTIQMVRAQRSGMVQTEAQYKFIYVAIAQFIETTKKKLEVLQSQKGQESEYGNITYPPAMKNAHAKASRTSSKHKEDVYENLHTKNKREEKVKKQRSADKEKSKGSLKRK

[3] = biological target: T3, Tyrosine-protein phosphatase non-receptor type 1 (Homo sapiens, UniProt P18031); assay: Inhibition of PTP1B (unknown origin)
T3 sequence (P18031 whole entry): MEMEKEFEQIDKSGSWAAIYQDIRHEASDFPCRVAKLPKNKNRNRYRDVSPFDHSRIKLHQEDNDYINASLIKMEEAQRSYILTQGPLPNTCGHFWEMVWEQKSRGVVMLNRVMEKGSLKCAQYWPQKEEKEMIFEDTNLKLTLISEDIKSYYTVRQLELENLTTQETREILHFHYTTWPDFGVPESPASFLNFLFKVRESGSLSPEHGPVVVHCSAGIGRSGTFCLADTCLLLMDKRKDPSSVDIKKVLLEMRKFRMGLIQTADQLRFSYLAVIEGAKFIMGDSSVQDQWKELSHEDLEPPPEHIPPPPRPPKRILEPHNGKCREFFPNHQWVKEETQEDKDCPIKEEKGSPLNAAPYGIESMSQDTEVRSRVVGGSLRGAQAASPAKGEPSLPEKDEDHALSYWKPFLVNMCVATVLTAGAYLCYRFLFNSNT

[4] = biological target: T1, Tyrosine-protein phosphatase non-receptor type 11
Description: Inhibition of SHP2 (unknown origin)

[5] = biological target: T2, Tyrosine-protein phosphatase non-receptor type 6
Description: Inhibition of recombinant GST-fused human SHP1 (205 to 597 residues) using DiFMUP as substrate incubated for 30 mins by fluorescence based assay

[6] = biological target: T3, Tyrosine-protein phosphatase non-receptor type 1; assay: Inhibition of recombinant GST-fused human PTP1B (1 to 435 residues) using DiFMUP as substrate incubated for 30 mins by fluorescence based assay

COc1cccc(-c2nnc3n(Cc4ccccc4Cl)c(=O)c4ccccc4n23)c1O
IC50 [1]: 60 µM

O=C1/C(=N\Nc2ccc(S(=O)(=O)O)cc2)C(c2ccc([N+](=O)[O-])cc2)=NN1c1ccccc1
IC50 [2]: 30 µM
IC50 [3]: 19 µM

O=C1Nc2ccc(S(=O)(=O)O)cc2/C1=N/Nc1ccccc1[N+](=O)[O-]
IC50 [4]: 0.8 µM

O=S(=O)(O)c1ccc2cc(/N=N/c3cc(S(=O)(=O)O)c4cccnc4c3O)ccc2c1
IC50 [5]: 0.355 µM
IC50 [6]: 1.69 µM
